In patent publication US20250381269A1, “BISPECIFIC ANTIBODY BINDING EGFR AND B7-H3” (FORTVITA BIOLOGICS (SINGAPORE) PTE. LTD., priority 2022, published 2025):
pEC50, pIC50: −log10 of the molar value.

Tests used:
[1] = tested on: NCI-H292 tumor-bearing mice; assay: Anti-tumor efficacy in NCI-H292 tumor-bearing mice; type: in vivo; details: NCI-H292, Balb/c Nude mice, 5 mg/kg i.p. Q3-4D x4; for Tumor volume (mm^3): day not printed in column (TGI based on day 22); for Complete response rate @ Day 59: tumor volume of 0, 5 mice per group; for Tumor growth inhibition (%) @ Day 22: vs h-IgG 5 mg/kg
Description: SPF female Balb/c Nude mice (purchased from Beijing Vital River Laboratory Animal Technology Co., Ltd.) with certificate No. 110011211108430747 were used in the experiment.
(§1) NCI-H292 cells were routinely subcultured for the subsequent in-vivo experiment. The cells were collected by centrifugation. Then the NCI-H292 cells were resuspended in an equal-proportion mixture of PBS (1×) and Matrigel Matrix (Corning) to prepare a cell suspension with a cell concentration of 20×10^6 cells/mL. On day 0. 0.2 mL of the cell suspension was taken and subcutaneously inoculated to the right abdominal area of Balb/c Nude mice to establish NCI-H292 tumor-bearing mouse models.
Four days after the tumor cell inoculation, the tumor volume in each mouse was measured. The mice were grouped (with 5 mice in each group).
h-IgG. […] Administration was performed on days 4, 8, 12, and 15 after the inoculation of NCI-H292 cells. Mice were monitored for tumor volume and body weight twice a week. […] Since death of mice due to tumors occurred earlier in some groups, relative tumor growth inhibition (TG1%) was calculated based on the tumor volume on day 22 after the inoculation by the following formula:
TG1%=100%×(control group tumor volume−treatment group tumor volume)/(control group tumor volume−control group tumor volume before administration).
Tumor volume measurement: The maximum length of major axis (L) and maximum length of minor axis (W) of tumors were measured with a vernier caliper, and tumor volume was calculated by the following formula: V=L×W^2/2.
The mice were weighed using an electronic balance. Mice with tumor volumes above 2000 mm3 or weight loss above 20% were euthanized.

[2] = tested on: SK-MES-1; assay: Proliferation inhibition experiment, SK-MES-1 (NSCLC); type: cell-based; details: EGFR Amplification, KRAS WT
Procedure: (§2) • (1) NSCLC: plated at 1500-2500 cells/100 μL in a 96-well low-adsorption plate (Corning, CLS7007-24EA) for 3D cell culture, in which the following cell lines and specific amounts were used: • NSCLC: 2000 cells/100 μL/well • NCI-H292: Cell Bank of the Chinese Academy of Sciences, SCSP-582 • NCI-H322: Cobioer, CBP60134 • NCI-H1650: ATCC, CRL-5883 • NCI-H1975: ATCC, CRL-5908 • SK-MES-1: CoBioer, CBP60152 • NCI-H1703: ATCC, HTB-43 • PC9+hB7H3: constructed as described above • CRC and HNSCC: plated at 1500-2000 cells/100 μL in a 96-well white-bottom plate (NUNC, 136101) for 2D cell culture, in which the following cell lines and specific amounts were used: • CRC: 1500 cells/100 μL/well • CCK-81: CoBioer, CBP60581 • HT-55: CoBioer, CBP60012 • H508: CoBioer, CBP60795 • LS180: CoBioer, CBP60034 • HNSCC: 1500 cells/100 μL/well • TE-1: CoBioer, CBP60655 • Colo680: CoBioer, CBP60452. (2) The antibody molecules prepared in advance by dilution were added to the corresponding cell well plate, mixed well, and cultured in an incubator at 37° C. with 5% CO2 for 5 days. • (3) After 5 days of continuous culture for proliferation inhibition assay, the Cell-Titer reagent (Promega, G7572) prepared in advance was added to cell wells, the plate was left to stand at room temperature for 15-25 min in the dark, and then CRC and HNSCC cells were directly detected by a multimode microplate reader (Molecular Devices, Spectra MAXi3). • (4) NSCLC: Cell-Titer and the cell mixture were transferred to a 96-well white-bottom plate (NUNC, 136101) and detected by a multimode microplate reader (Molecular Devices, Spectra MAXi3).

[3] = tested on: H322; assay: ADCC report assay, H322; type: cell-based; details: EGFR WT, KRAS WT, effector/target 10:1, 20 h
Procedure: (§3) In the ADCC report assay, ADCC effector cells ((Promega, G7102)) are engineered cells in which FcRIIIa (V158) receptor is overexpressed into Jurkat T cells, which rapidly respond to ADCC through the NFAT-RE driving element within the Jurkat T cells.
(§4) • (1) Tumor cells (cell lines listed in Table 3) and ADCC effector cells (Promega, G7102) were mixed well (1.5E4 cells: 1.5E5 cells/well/100 μL (1.5E5: 1.5E6 cells/mL)) according to an effector/target ratio (10:1), and added to a 96-well white plate (NUNC, 136101). • (2) The antibody molecules prepared in advance by dilution were added to the corresponding cell well plates, mixed well, and cultured at 37° C. with 5% CO2 for 20 h. • (3) The Bio-glo reagent (Promega, G755B) prepared in advance was added to the cell well plate, the plate was left to stand at room temperature for 10-15 min in the dark, and then the cells were detected by a multimode microplate reader (Molecular Devices, Spectra MAXi3).

[4] = tested on: H292; assay: ADCC report assay, H292; type: cell-based; details: EGFR WT, KRAS WT, effector/target 10:1, 20 h
Procedure: as §3, §4

[5] = tested on: H292; assay: Proliferation inhibition experiment, H292 (NSCLC); type: cell-based; details: EGFR WT, KRAS WT
Procedure: as §2

[6] = tested on: Colo-680N; assay: Proliferation inhibition experiment, Colo-680N (HNSCC); type: cell-based; details: EGFR WT, KRAS WT
Procedure: as §2

[7] = tested on: SK-MES-1 tumor-bearing mice; assay: Anti-tumor efficacy in SK-MES-1 tumor-bearing mice, 1 mg/kg single dose; type: in vivo; details: SK-MES-1, Balb/c Nude mice, day 24; for Tumor volume (mm^3): 1 mg/kg i.p. single dose on day 6; for Complete response rate / Tumor growth inhibition (%): 1 mg/kg i.p. single dose; for Complete response rate: 7 mice per group; for Tumor growth inhibition (%): vs h-IgG 1 mg/kg
Description: SPF female Balb/c Nude mice (purchased from Beijing Vital River Laboratory Animal Technology Co., Ltd.) with certificate No. 110011211108966881 were used in the experiment.
as §1, with “SK-MES-1 cells” for “NCI-H292 cells”, “the SK-MES-1” for “the NCI-H292”, “day 0,” for “day 0.”, “establish SK-MES-1” for “establish NCI-H292”
Six days after the tumor cell inoculation, the tumor volume in each mouse was measured. The mice were grouped (with 7 mice in each group).
Administration was performed once on day 6 after the inoculation of SK-MES-1 cells. Mice were monitored for tumor volume and body weight twice a week.
Tumor volume measurement: The maximum length of major axis (L) and maximum length of minor axis (W) of tumors were measured with a vernier caliper, and tumor volume was calculated by the following formula: V=L×W^2/2. The mice were weighed using an electronic balance.

Substance | Tumor volume (mm^3) [1] | Complete response rate @ Day 59 [1] | Tumor growth inhibition (%) @ Day 22 [1] | Max inhibition (%) Mean ± SD [2] | pIC50 ([2]; 3D culture, 5 days) | pEC50 [3] | pEC50 [4] | Max inhibition (%) Mean ± SD [5] | pIC50 ([5]; 3D culture, 5 days) | Max inhibition (%) Mean ± SD [6] | pIC50 ([6]; 2D culture, 5 days) | Tumor volume (mm^3) [7] | Complete response rate [7] | Tumor growth inhibition (%) [7]
amivantamab [JNJ372] | 177 mm^3 | 0/5 | 100% | 66.1 ± 3.7% | 8.01 | 9.97 | 10.08 | 64.5 ± 2.5% | 6.85 | 26.5 ± 2.2% | 7.59 | 87 mm^3 | 0/7 | 122%
zalutumumab [Zalu mAb] | 96 mm^3 | 1/5 | 107% | 67.8 ± 4.1% | – | 11.22 | 11.05 | 79.4 ± 1.6% | – | 24.9 ± 1.1% | – | 23 mm^3 | 2/7 | 145%
